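Exposure lasted 48 hours, with cells grown in 96-well plates and compounds tested at five concentrations. GI50: concentration for 50% inhibition of growth.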 Calls of active or inactive are those of the source. Cut-off read from the data, not from the text of the source: active = GI50 up to about 1.1 µM and inactive = higher.
Experiments:
Experiment in all cases: NCI tumour cell line growth inhibition, 48 h
[1] = tested on: DLD-1
[2] = tested on: DMS-273
[3] = tested on: HOP-18
[4] = tested on: KM-20L2
[5] = tested on: LXFL 529
[6] = tested on: M19-MEL
[7] = tested on: SNB-78
[8] = tested on: XF498
[9] = tested on: RXF 631

Row | Compound | GI50 [1] | GI50 [2] | GI50 [3] | GI50 [4] | GI50 [5] | GI50 [6] | GI50 [7] | GI50 [8] | GI50 [9]
1 | N=C(N)NS(=O)(=O)c1ccc(NC(=O)c2cccc3c(O)c4ccccc4nc23)cc1 | > 100 µM (inactive) | > 100 µM (inactive) | > 86.5 µM (inactive) | > 100 µM (inactive) | > 100 µM (inactive) | > 100 µM (inactive) | 42.1 µM (inactive) | > 100 µM (inactive) | –
2 | Nc1c2ccccc2nc2nccnc12 | > 100 µM (inactive) | > 100 µM (inactive) | > 100 µM (inactive) | > 100 µM (inactive) | – | > 100 µM (inactive) | > 100 µM (inactive) | > 100 µM (inactive) | –
3 | Clc1cc(Cl)c2c(Cl)cc(Cl)c3c2c1N=S=N3 | 83.8 µM (inactive) | > 100 µM (inactive) | > 100 µM (inactive) | > 100 µM (inactive) | > 100 µM (inactive) | > 100 µM (inactive) | > 100 µM (inactive) | 12.9 µM (inactive) | –
4 | Cc1cc(C)c2c(c1)N[S@@](=O)S2 | 26.9 µM (inactive) | 17.2 µM (inactive) | 23.6 µM (inactive) | 51.3 µM (inactive) | 13.2 µM (inactive) | 21.7 µM (inactive) | 26.1 µM (inactive) | 22.6 µM (inactive) | –
5 | Cc1cc2c(cc1C)[n+]([O-])c(C(=O)C/C(=N/NC(=O)c1ccccc1O)C(=O)Nc1ccccc1C(C)C)c(C)[n+]2[O-] | 53.7 µM (inactive) | 99.5 µM (inactive) | 89.5 µM (inactive) | > 100 µM (inactive) | 63 µM (inactive) | > 100 µM (inactive) | > 100 µM (inactive) | – | > 100 µM (inactive)
6 | Cc1ccccc1C1OC(=O)c2ccc3ccccc3c21 (stereo not drawn) | 3.37 µM (inactive) | 3.5 µM (inactive) | 7.64 µM (inactive) | 4.16 µM (inactive) | 3.38 µM (inactive) | 3.27 µM (inactive) | 6.5 µM (inactive) | 2.31 µM (inactive) | 0.607 µM (active)
7 | CSc1ccc(N2C(=O)C3c4[nH]c5ccccc5c4C4CCC(C(C)(C)C)CC4C3C2=O)cc1 (stereo not drawn) | 52.4 µM (inactive) | 10.6 µM (inactive) | 22.8 µM (inactive) | 48.4 µM (inactive) | 18.5 µM (inactive) | 31.9 µM (inactive) | 7.94 µM (inactive) | 27.7 µM (inactive) | –
8 | CC1=C(C)CC2(CCCCC2=O)[S+]([O-])C1 (stereo not drawn) | > 100 µM (inactive) | > 100 µM (inactive) | > 100 µM (inactive) | > 100 µM (inactive) | > 100 µM (inactive) | > 100 µM (inactive) | > 100 µM (inactive) | > 100 µM (inactive) | –
9 | COc1cc(/C=C(\C#N)c2ccccc2)cc(OC)c1 | 76.9 µM (inactive) | – | – | 41.1 µM (inactive) | 43.4 µM (inactive) | 50 µM (inactive) | 82.4 µM (inactive) | 48 µM (inactive) | –
10 | C[Si](C)(C)/C(Br)=C\CCN1C(=O)CCC1O (stereo not drawn) | – | > 100 µM (inactive) | > 100 µM (inactive) | > 100 µM (inactive) | > 100 µM (inactive) | > 100 µM (inactive) | > 100 µM (inactive) | > 100 µM (inactive) | –
11 | CCOC(=O)N1C2C=C(C)C(C3C(C)C(=O)N31)N(C(=O)c1ccccc1)O2 (stereo not drawn) | > 100 µM (inactive) | > 100 µM (inactive) | > 100 µM (inactive) | – | > 100 µM (inactive) | > 100 µM (inactive) | > 100 µM (inactive) | > 100 µM (inactive) | > 100 µM (inactive)
12 | C/C(CC(=O)Nc1ccc(NC(=O)/C(C)=N/NS(=O)(=O)c2ccc(C)cc2)cc1)=N\NS(=O)(=O)c1ccc(C)cc1 | > 100 µM (inactive) | – | – | > 100 µM (inactive) | > 100 µM (inactive) | > 100 µM (inactive) | > 100 µM (inactive) | – | –
13 | Brc1cc2c(cc1Br)CN(c1ccccc1)C2 | 68.2 µM (inactive) | > 100 µM (inactive) | – | > 100 µM (inactive) | > 100 µM (inactive) | > 100 µM (inactive) | > 100 µM (inactive) | > 100 µM (inactive) | –
14 | CCc1cc2c(O)c(c1)Cc1cc(CC)cc(c1O)Cc1cc(CC)cc(c1O)Cc1cc(CC)cc(c1O)Cc1cc(CC)cc(c1O)Cc1cc(CC)cc(c1O)Cc1cc(CC)cc(c1O)C2 | > 100 µM (inactive) | > 100 µM (inactive) | – | > 100 µM (inactive) | > 100 µM (inactive) | > 100 µM (inactive) | 55 µM (inactive) | 48.2 µM (inactive) | –
15 | NC(CNc1ccc(O)cc1)C(=O)O (stereo not drawn) | > 100 µM (inactive) | > 100 µM (inactive) | > 100 µM (inactive) | 63 µM (inactive) | > 100 µM (inactive) | 28.8 µM (inactive) | > 100 µM (inactive) | 13.5 µM (inactive) | 92.3 µM (inactive)
16 | COC(=O)Cc1nc2ccccc2o1 | 45.1 µM (inactive) | 36.4 µM (inactive) | > 100 µM (inactive) | 20.5 µM (inactive) | 49.3 µM (inactive) | 30.5 µM (inactive) | > 100 µM (inactive) | 59 µM (inactive) | > 100 µM (inactive)
17 | N=C(N)NS(=O)(=O)c1ccc(NC(=O)c2cccc3c(Nc4ccc(S(N)(=O)=O)cc4)c4ccccc4nc23)cc1 | > 100 µM (inactive) | > 100 µM (inactive) | > 100 µM (inactive) | > 100 µM (inactive) | > 100 µM (inactive) | > 100 µM (inactive) | > 100 µM (inactive) | > 100 µM (inactive) | –
18 | O=S1OC(c2ccccc2)(c2ccccc2)C(c2ccccc2)(c2ccccc2)O1 | > 73.8 µM (inactive) | > 100 µM (inactive) | > 100 µM (inactive) | 18 µM (inactive) | 7.45 µM (inactive) | > 86.7 µM (inactive) | > 100 µM (inactive) | 56.2 µM (inactive) | > 100 µM (inactive)
19 | CCc1nc2c([nH]1)C(=O)c1ccccc1C2=O | 39.1 µM (inactive) | 37.1 µM (inactive) | – | – | – | 15.3 µM (inactive) | 53.7 µM (inactive) | 15.9 µM (inactive) | –
20 | Cc1ccc(Nc2cccc3c2C(=O)c2cccc(Nc4ccc(C)cc4S(=O)(=O)O)c2C3=O)c(S(=O)(=O)O)c1 | > 100 µM (inactive) | > 100 µM (inactive) | > 100 µM (inactive) | > 100 µM (inactive) | > 100 µM (inactive) | > 100 µM (inactive) | > 100 µM (inactive) | – | > 100 µM (inactive)
21 | c1ccc(C2OC3(CCC[C@H]4C[C@H]43)O[C@H]2c2ccccc2)cc1 (stereo partly drawn) | 78.9 µM (inactive) | 49.4 µM (inactive) | – | 30.8 µM (inactive) | – | 32.2 µM (inactive) | 58.9 µM (inactive) | 22.7 µM (inactive) | 89.3 µM (inactive)
22 | CC1C=CC(O)[C@]2(CO)CC3(CCC12)OCCO3 (stereo partly drawn) | > 100 µM (inactive) | > 100 µM (inactive) | – | > 100 µM (inactive) | > 100 µM (inactive) | > 100 µM (inactive) | > 100 µM (inactive) | > 100 µM (inactive) | > 100 µM (inactive)
23 | O=C(CC(=O)c1ccccc1)c1ccccc1.O=C(CC(=O)c1ccccc1)c1ccccc1.O=C(CC(=O)c1ccccc1)c1ccccc1.[SiH4] | 3.7 µM (inactive) | – | 6.71 µM (inactive) | 4.18 µM (inactive) | 3.39 µM (inactive) | 3.31 µM (inactive) | – | 3.87 µM (inactive) | –
